The test system of test [1] is brain phospholipids. Briefly: Brain phospholipid levels in gerbils given UMP diet and/or PUFA by gavage. More on the design: PC / PE / PS / PI: unit not given here. The test is classed as in vivo, gerbil. As to the method:
Control standard diet (Table 4) consisted of Teklad Global 16% protein rodent diet (Harlan Teklad, Madison, Wis.), which contained 0.1% choline chloride (CC), corresponding to a daily dose of 50 mg/kg/day. UMP was provided as 0.5% UMP·2Na^+ weight/weight, added to the control diet, also prepared by Harlan Teklad, corresponding to 240 mg/kg/day UMP. DHA was administered as 300 mg/kg/day in 200 microliter (mcL)/day 5% Arabic Gum solution, while groups not receiving DHA were administered vehicle (5% Arabic Gum) alone. DHA was provided by Nu-Chek Prep (Elysian, MN) and UMP by Numico (Wagenigen, NL).
Gerbils were anesthetized with ketamine and xylazine (80 and 10 mg/kg bwt, i.p.) and sacrificed by immersing the head into liquid nitrogen for 2 min, followed by decapitation. Brains were immediately and quickly (30 seconds) removed using a bone rongeur and stored at −80° C.
Frozen brain hemispheres were weighed and homogenized in 100 volumes of ice-cold deionized water using a tissue degrader (Polytron PT 10-35, Kinematica AG, Switzerland), then analyzed as described in Example 1.
Protein in whole brain homogenate sample was measured for using bicinchoninic acid reagent (Perkin Elmer, Norwalk, Conn., USA). DNA was measured by measuring 460 nm emission of samples on a fluorometer in the presence of bisbenzimidizole, a fluorescent dye known as Hoechst H 33258 (American Hoechst Corporation), which has an excitation maximum at 356 nm and an emission maximum of 458 when bound to DNA.
Male gerbils weighing 80-100 g were divided into 4 groups of 8 gerbils and administered the supplements depicted in Table 1:
Adult gerbils were administered control standard diet (Table 4) with our without 0.5% UMP and/or 300 mg/kg/day DHA, EPA, or AA. Groups not receiving DHA were administered vehicle (5% Arabic Gum) alone.

For test [2], the system named is hippocampal dendritic spines. Put plainly: Hippocampal dendritic spine numbers in pups of treated pregnant and nursing mothers. The test is classed as in vivo. The note with it: rat pups, mothers treated 10 days before parturition and 20 days while nursing. The text has this: In another study, pregnant rats were allowed to consume ad libitum, for 10 days before parturition and 20 days while nursing, either a choline-containing control diet or this diet supplemented with uridine as UMP; half of each group also received DHA or its diluent daily, by gavage. Pups were then sacrificed and brain slices were examined to determine numbers of hippocampal dendritic spines.

For test [3], the system named is brain CDP-choline. Put plainly: Brain CDP-choline and CDP-ethanolamine levels (HPLC). The test is classed as in vivo. The note with it: gerbil. How it is done: FIG. 5A-B. Effects of DHA on brain CDP-choline levels (FIG. 5A) and CDP-ethanolamine levels (FIG. 5B). Groups of 8 gerbils received either a control or a UMP-containing diet, and, by gavage, DHA (in a vehicle of 5% gum Arabic solution) or 5% gum Arabic solution alone for 28 days. On the 29th day brains were harvested and assayed for CDP-choline. Data are presented as means±SEM. Statistical analysis was performed using one- or two-way ANOVA followed by Tukey test. a: P<0.05 when compared with the values for control diet plus vehicle group; b: P<0.05 when compared with values for UMP diet plus vehicle group.
Aliquots (2 ml) of the upper (aqueous) phase were dried under a vacuum, reconstituted, and injected into an HPLC. The dried samples were reconstituted in 100-200 μl water and were analyzed by HPLC on an anion exchange column (Alltech Hypersil APS-2, […], 250×4.6 mm). CDP-choline was eluted with a linear gradient of buffers A (H3PO4, 1.75 mM, pH 2.9) and B (NaH2PO2, 500 mM, pH 4.5) from 0 to 100% B over period of 30 min. With this system, CDP-choline was resolved from closely co-eluting substances such as UMP in an isocratic system over a period of 40 min. The retention time for CDP-choline was 9.5 min. The column was washed with buffer B at the end of each experiment and every several days to remove retained nucleotides. Individual nucleotide peaks were detected by UV absorption at 280 nm and were identified by comparison with the positions of authentic standards, as well as by the addition of nucleotide standards to samples.

The test system of test [4] is SHSY-5Y cells. Briefly: 14C-choline incorporation into phospholipids in SHSY-5Y cells. The test is classed as cell-based, human. As to the method: SHSY-5Y cells were grown to near confluency in DMEM+10% FBS in 35 mm dishes. Cells were incubated for 18 hr in serum-free DMEM+1% FBS containing 30 μM choline+/−10 μM of DHA, arachidonic acid, or palmitic acid. Cells were then labeled, and labeled phospholipids were quantified as described for Example 1.
DHA was dissolved in ethanol to a […] concentration and frozen in 10 microliter aliquots at −80° C. For each experiment, one aliquot was diluted in ethanol to 10 micromolar; the volume giving the desired final solution in incubation medium was mixed with an equal volume of BSA solution (1 gm/ml).
The effect of arachidonic acid on phospholipid synthesis in SHSY-5Y cells was further characterized as described for omega-3 fatty acids and PC-12 cells in Example 2. […] Thus, omega-6 fatty acids stimulate synthesis of a variety of phospholipids in a dose-dependent manner.

[5] abbreviates: gerbil brain, 3 weeks, 0.5% UMP and/or 300 mg/kg/day PUFA, Table 6.
Where [6] appears, read: gerbil brain, 4 weeks, normalized to DNA levels, mean +/- SEM.
[7] abbreviates: gerbil brain, 4 weeks, normalized to protein levels, mean +/- SEM.
Where [8] appears, read: gerbil brain, Table 5 part B, One week.
Setting [9] is: gerbil brain, Table 5 part B, Three weeks.
[10] abbreviates: gerbil, Table 5A study, vs control.

Results on 3 compounds are retold here after US20160235778A1, “COMPOSITIONS CONTAINING PUFA, URIDINE AND CHOLINE AND METHODS OF USE THEREOF” (MASSACHUSETTS INSTITUTE OF TECHNOLOGY, priority 2014, published 2016).

Turning to `CCC=CCC=CCC=CCC=CCC=CCCCC(=O)O` [EPA, 5,8,11,14,17-eicosapentaenoic acid], in test [1] (setting [5]), the PC amounted to 125 ± 8, the PE was 76 ± 4, the PI came out at 22 ± 2 and the PS was determined as 31 ± 1. Also, in test [1] (setting [5]), the SM was 26 ± 3 and the “Total PL” value worked out at 347 ± 19. Besides, in test [1] (gerbil, 3 weeks), the “brain phospholipid levels, in words” value is given as “increased phospholipid levels”.
Consider `O=c1ccn([C@@H]2O[C@H](COP(=O)(O)O)[C@@H](O)[C@H]2O)c(=O)[nH]1` [UMP, uridine monophosphate], for which, in test [2], the “Increase over control (%)” value amounted to 28% and the Number of spines was 68. In test [1] (setting [5]), this compound displayed a PC of 131 ± 2, a PE of 70 ± 1, a PI of 16 ± 1 and a PS of 29 ± 1. For the same compound, in test [1] (setting [5]), the SM amounted to 22 ± 1 and the “Total PL” value amounted to 332 ± 5. In test [1] (setting [6]), this compound displayed a PC of 368 ± 10, a PE of 195 ± 9, a PI of 78 ± 6 and a PS of 86 ± 7. Besides, in test [1] (setting [6]), the SM is given as 111 ± 4 and the “Total PL” value worked out at 878 ± 18. In test [1] (setting [7]), this compound registered a PC of 171 ± 8, a PE of 84 ± 8, a PI of 31 ± 2 and a PS of 35 ± 3. In test [1] (setting [7]), the SM amounted to 52 ± 5 and the “Total PL” value is listed as 367 ± 22. Moreover, the “increase in levels of total phospholipids” value in test [1] (gerbil brain, 4 weeks, vs control group) was 5%. For the same compound, in test [1] (gerbil brain, Table 5 part A), the PtdCho is given as 171 ± 8 nmol/mg prt, the PtdEtn came out at 64 ± 8 nmol/mg prt, the PtdIns is given as 31 ± 2 nmol/mg prt and the PtdSer stood at 35 ± 3 nmol/mg prt. Further, in test [1] (gerbil brain, Table 5 part A), the SM is on record as 52 ± 5 nmol/mg prt and the “Total PL” value is listed as 367 ± 22 nmol/mg prt. Further, in test [1] (setting [8]), the PtdCho was found to be 154 ± 6 nmol/mg prt, the PtdEtn is on record as 63 ± 4 nmol/mg prt, the PtdIns was determined as 20 ± 4 nmol/mg prt and the PtdSer was 39 ± 1 nmol/mg prt. In test [1] (setting [8]), the SM came out at 49 ± 3 nmol/mg prt and the “Total PL” value stood at 390 ± 21 nmol/mg prt. In test [1] (setting [9]), this compound registered a PtdCho of 199 ± 5 nmol/mg prt, a PtdEtn of 87 ± 4 nmol/mg prt, a PtdIns of 25 ± 1 nmol/mg prt and a PtdSer of 42 ± 2 nmol/mg prt. In test [1] (setting [9]), the SM is listed as 70 ± 4 nmol/mg prt and the “Total PL” value is given as 479 ± 6 nmol/mg prt. The “effect on brain phospholipids after 1 week of treatment” value in test [1] (gerbil, 1 week) is “no significant effects”. Besides, in test [1] (setting [10]), the “increase in brain level of PC” value came out at 13%, the “increase in brain level of PE” value was 29% and the “increase in brain level of PI” value is given as 48%. Besides, the “increases in brain phospholipids, in words” value in test [1] (gerbil, treatment for 3 weeks) is “smaller but still significant increases”. In test [3] (FIG. 5A), the “brain CDP-choline levels, in words” value is listed as “decreased”. Also, the “brain CDP-ethanolamine levels, in words” value in test [3] (FIG. 5B) is recorded as “decreased”.
Take `CCCCCC=CCC=CCC=CCC=CCCCC(=O)O` [arachidonic acid, 5,8,11,14-eicosatetraenoic acid]: the “brain phospholipid levels, in words” value in test [1] (gerbil, 3 weeks) is listed as “increased phospholipid levels”. Besides, in test [4] (18 h with 10 μM fatty acid, FIG. 3A), the phospholipid synthesis result is reported as “enhanced”. Also, in test [4] (range of dosages, dose-dependent, FIG. 3B), the “synthesis of total phospholipids, PC and phosphatidylethanolamine” value was “increased synthesis”.
